# Measurements published in patent US20230226065A1, “ANTI-INFLAMMATORY COMPOSITIONS, METHODS AND USES THEREOF” (COMVITA LIMITED, priority 2020, published 2023).
# Columns and labels:
# [1] = system: differentiated THP-1 cells; experiment: WST-1 cell viability, differentiated THP-1 cells; type: cell-based; details: for cell death: human
# Procedure: To measure cytotoxicity of 3,6,7-trimethyllumazine at different doses, 2-(4-Iodophenyl)-3-(4-nitrophenyl)-5-(2,4-disulfophenyl)-2H-tetrazolium, monosodium salt (WST-1) (Roche, 11644807001, Lot #45255800) was used. WST-1 is a cell proliferation reagent for measurement of cellular proliferation, viability, and cytotoxicity using a colorimetric assay (Gosert (2011); Peskin (2000)).
# After incubation, a portion of the culture media was taken and stored for MMP-9 secretion testing using ELISA. The remaining media in the plates was then removed and 100 μl of WST-1 in RPMI-1640 media (1:10 dilution) was added to each cell well and incubated at 37° C. for a further 4 hours. The plates were then read using a plate reader at wavelength of 450 nm. Cytotoxicity was calculated as follows:
# [WST-1 score for each sample/WST-1 score for the control]×100
# A WST-1 score below 80% will be considered cytotoxic.
# [2] = system: inactive MMP-9 (pro-MMP-9); experiment: Gelatin gel zymography, inactive MMP-9 band; type: biochemical; details: inactive MMP-9 (~47 kDa band); densitometry vs no inhibitor; n=5
# Procedure: (§1) Novex™ 10% Zymogram Plus (Gelatin) Protein Gels (15 wells) were purchased from Thermo Fisher Scientific Inc. (Auckland, New Zealand). All chemicals required for the zymogram analysis were also purchased from Thermo Fisher, these include Novex™ Sharp Pre-stained Protein Standard, Novex Tris-Glycine SDS sample buffer, Novex Tris-Glycine SDS running buffer, Novex Zymogram renaturing buffer and Novex Zymogram developing buffer. […] Gelatin gel zymography was performed as an independent technique to confirm the inhibition of MMP-9 from 3,6,7-trimethyllumazine. This technique uses a non-reducing SDS-PAGE (sodium dodecyl sulfate polyacrylamide gel electrophoresis) gel embedded with gelatin. Proteins are migrated and separated during electrophoresis. The SDS is removed after electrophoresis and the gel is then incubated with essential cofactors required for enzymatic activity. The embedded gelatin can be digested by MMP-9, resulting in clear bands on a dark blue background after staining with Coomassie blue dyes. The gelatinase activity is represented by band densitometry, which can be assessed with image analysis software. […]
# (§2) After incubation, the gelatin gel was rinsed with water for three times (5 min each) under gentle agitation. […] MMP-9 activities were analysed using densitometry on ImageJ Version 1.52a. […]
# [3] = system: COX-2 protein expression in THP-1 cells; experiment: LPS-induced COX-2 protein expression in THP-1 cells (Western blot); type: cell-based, human; details: for COX-2 Relative expression (mean ± SEM): LPS 24 hours, LPS positive control 1.26 ± 0.11, n=6
# Procedure: THP-1 cells were seeded in 12-well tissue-culture treated plates at a density of 500,000 cells/well in growth media overnight. […] Cells were washed with cold PBS and lysed in RIPA buffer containing protease inhibitors (Sigma P2714) for 15 minutes on ice. Debris was pelleted by centrifugation at 14,000×g for 15 min and lysate supernatants were frozen at −80° C. for later analysis by western blot.
# Western blots for semi-quantitative COX-2 (Abcam ab188183) protein expression were conducted on THP-1 monocyte cells lysed with RIPA buffer containing protease inhibitors. A total of 10 μg protein was loaded onto precast 10% acrylamide gels (BioRad, NZ) then separated by electrophoresis at 120 V at room temperature. […] The membranes were then incubated with the primary antibody that correspond to the protein of interest for 1 h. […] Western blot images were captured with an Amersham™ Imager 600 (GE Healthcare, Chicago, Ill., USA) and densitometry measurement of protein bands was analysed with the accompanying image analysis software.
# For analysis of Western blots, densitometry measurements from the proteins of interest were normalised to the densitometry of p-actin for each sample. […] The significance level was set at p≤0.05.
# active MMP-9 = experiment: Gelatin gel zymography, active MMP-9 band; type: biochemical; details: active MMP-9 (~37 kDa band); densitometry vs no inhibitor; n=5
# Procedure: as §1, §2
structure (smiles),measurement,setting,value
"Cc1nc2[nH]c(=O)n(C)c(=O)c2nc1C [3,6,7-trimethyllumazine]",WST-1 score (cell viability),"[1]; 40 μg/mL, below 80% considered cytotoxic",79.8%
same,cell death,[1]; 30 μg/mL,13%
same,cell death,[1]; 40 μg/mL,20%
same,percentage inhibition of gelatinase activity,[2],17%
same,COX-2 Relative expression (mean ± SEM),[3]; 12.5 μg/mL,0.98 ± 0.05
same,COX-2 Relative expression (mean ± SEM),[3]; 25 μg/mL,0.99 ± 0.07
same,reduction in COX-2 protein compared to the LPS treatment,[3]; 50 ug/mL,significant reduction
same,COX-2 Relative expression (mean ± SEM),[3]; 50 μg/mL,0.90 ± 0.09
same,COX-2 Relative expression (mean ± SEM),[3]; 100 μg/mL,0.96 ± 0.13
same,reduction of COX-2 protein expression compared to LPS-stimulated cells,"[3]; all doses tested, 12.5-100 μg/mL",16-23%
same,percentage inhibition of gelatinase activity,active MMP-9,31%
